The test system of experiment [1] is chick embryo chorioallantoic membrane. In words: chick embryo chorioallantoic membrane (CAM) assay. Format: in vivo. The note with it: 100 μg methylcellulose disk, after 48 hours. From the text:
Anti-proliferative activity can be evaluated in situ by testing the ability of the new non-steroidal estradiol derivatives to inhibit the proliferation of new blood vessel cells (angiogenesis). A suitable assay is the chick embryo chorioallantoic membrane (CAM) assay described by Crum et al. Science 230:1375 (1985). See also, U.S. Pat. No. 5,001,116, hereby incorporated by reference, which describes the CAM assay. Briefly, fertilized chick embryos are removed from their shell on day 3 or 4, and a methylcellulose disc containing the drug is implanted on the chorioallantoic membrane. The embryos are examined 48 hours later and, if a clear avascular zone appears around the methylcellulose disc, the diameter of that zone is measured.

The subject of experiment [2] is MCF-7 cell. In words: estrogen dependent MCF-7 cell proliferation. Format: cell-based. The note with it: over a wide range of concentrations. From the text: 2-Methoxyestradiol is an endogenous, steroidal metabolite of estradiol (E2) that has potent anti-proliferative activity and induces apoptosis in a wide variety of tumor and non-tumor cell lines. […] What is needed is a series of compounds that constitute analogs of 2-methoxyestradiol which are non-steroidal in structure and which will have similar biological properties to 2-methoxyestradiol and that can be used in similar applications.

The subject of experiment [3] is vascular endothelial cell. The settings on record: endothelial versus tumor cell proliferation; cited from earlier work.

Results on 2 compounds are retold here after patent publication US20030187076A1, “Non-steroidal analogs of 2-methoxyestradiol” (priority 2002, published 2003).

Consider `COc1cc2c(cc1O)CC[C@@H]1[C@@H]2CC[C@]2(C)[C@@H](O)CC[C@@H]12` [2-methoxyestradiol], for which, in experiment [1], the “inhibition of cell mitosis and growth of new blood vessels” value is “inhibit cell mitosis and the growth of new blood vessels”. Besides, in experiment [2], the estrogenic activity result is “not estrogenic”.
With `CO[C@@H]1[C@H](OC(=O)NC(=O)CCl)CC[C@]2(CO2)[C@H]1[C@@]1(C)O[C@@H]1CC=C(C)C` [AGM-1470], in experiment [3], the “half-maximal inhibition of endothelial cell proliferation, concentration lower than for tumor cell proliferation” value is 4 logs.
